The text below walks through data of patent US10328065B2, “Pharmaceutical combination comprising the PI3K inhibitor alpelisib and the B-RAF inhibitor dabrafenib; the use of such combination in the treatment or prevention of cancer” (Novartis AG, priority 2015, dated 2019).

Assay type in all cases: cell-based
In one assay the test system is COLO-205. Description: Cell proliferation (cell count by microscopy) and HSA synergy, COLO-205. To be noted: Homo sapiens; COLO-205 (BRAF mutant); 72 h; 50% of cell counts relative to DMSO; tested A 13 nM-10 μM, B 1.4 nM-1 μM. As for the experimental part: (§1) COMPOUNDS A and B were dissolved in 100% DMSO (Sigma, Catalog number D2650) at concentrations of 20 mM and stored at −20° C. until use. Compounds were arrayed in drug master plates (Greiner, Catalog number 788876) and serially diluted 3-fold (7 steps) at 2000× concentration.
(§2) Colorectal cancer cell lines used for this study were obtained, cultured and processed from commercial vendors ATCC, HSRRB, and CellBank Australia (Table 1). All cell line media were supplemented with 10% FBS (HyClone, Catalog number SH30071.03). Media for LIM2405 and LIM2551 was additionally supplemented with 0.6 μg/mL Insulin (SIGMA, Catalog number 19278), 1 μg/mL Hydrocortisone (SIGMA, Catalog number H0135), and 10 μM 1-Thioglycerol (SIGMA, Catalog number M6145).
(§3) Cell lines were cultured in 37° C. and 5% CO2 incubator and expanded in T-75 flasks. In all cases cells were thawed from frozen stocks, expanded through ≥1 passage using 1:3 dilutions, counted and assessed for viability using a ViCell counter (Beckman-Coulter) prior to plating. To split and expand cell lines, cells were dislodged from flasks using 0.25% Trypsin-EDTA (GIBCO, Catalog number 25200). All cell lines were determined to be free of mycoplasma contamination as determined by a PCR detection methodology performed at Idexx Radil (Columbia, Mo., USA) and correctly identified by detection of a panel of SNPs. […]

The test system of another assay is HT-29. The assay is described as follows: Cell proliferation (cell count by microscopy) and HSA synergy, HT-29. To be noted: Homo sapiens; HT-29 (BRAF, PIK3CA mutant); 72 h; 50% of cell counts relative to DMSO; tested A 13 nM-10 μM, B 1.4 nM-1 μM. On the procedure:
as §1, §2, §3

In a further assay the test system is LIM2405. The assay is described as follows: Cell proliferation (cell count by microscopy) and HSA synergy, LIM2405. To be noted: LIM2405 (BRAF mutant); 72 h; 50% of cell counts relative to DMSO; tested A 13 nM-10 μM, B 1.4 nM-1 μM. On the procedure: as §1, §2, §3
A further assay concerns RKO. Description: Cell proliferation (cell count by microscopy) and HSA synergy, RKO. The conditions noted are these: Homo sapiens, cell line printed RXO (BRAF, PIK3CA mutant), 72 h, 50% of cell counts relative to DMSO, tested A 13 nM-10 μM, B 1.4 nM-1 μM. On the procedure:
as §1, §2, §3

The test system of another assay is LIM2551. The assay is described as follows: Cell proliferation (cell count by microscopy) and HSA synergy, LIM2551. To be noted: LIM2551 (BRAF, PIK3CA mutant); 72 h; 50% of cell counts relative to DMSO; tested A 13 nM-10 μM, B 1.4 nM-1 μM. As for the experimental part: as §1, §2, §3
The test system of the next assay is LS411N. The assay is described as follows: Cell proliferation (cell count by microscopy) and HSA synergy, LS411N. To be noted: Homo sapiens, LS-411N; LS411N (BRAF mutant); 72 h; 50% of cell counts relative to DMSO; tested A 13 nM-10 μM, B 1.4 nM-1 μM. As for the experimental part: as §1, §2, §3
The next assay relates to OUMS-23. Description: Cell proliferation (cell count by microscopy) and HSA synergy, OUMS-23. To be noted: OUMS-23 (BRAF mutant); 72 h; 50% of cell counts relative to DMSO; tested A 13 nM-10 μM, B 1.4 nM-1 μM. As for the experimental part: as §1, §2, §3

Turning to `Cc1nc(NC(=O)N2CCC[C@H]2C(N)=O)sc1-c1ccnc(C(C)(C)C(F)(F)F)c1` [COMPOUND A, (S)-Pyrrolidine-1,2-dicarboxylic acid 2-amide 1-({4-methyl-5-[2-(2,2,2-trifluoro-1,1-dimethyl-ethyl)-pyridin-4-yl]-thiazol-2-yl}-amide)], the IC50 in the assay on COLO-205 was over 10 µM; in the assay with HT-29 it was 1.9 µM; in the assay with LIM2405, over 10 µM; in the assay with RKO it was 2.6 µM; with LIM2551 it was 1.4 µM; in the assay with LS411N, over 10 µM. The IC50 in the assay on OUMS-23 is over 10 µM.

Consider `CC(C)(C)c1nc(-c2cccc(NS(=O)(=O)c3c(F)cccc3F)c2F)c(-c2ccnc(N)n2)s1` [COMPOUND B, N-{3-[5-(2-Amino-4-pyrimidinyl)-2-(1,1-dimethylethyl)-1,3-thiazol-4-yl]-2-fluorophenyl}-2,6-difluorobenzenesulfonamide], for which the 50% inhibitory concentration (IC50) is 0.01 µM in the assay on COLO-205; 0.012 µM with HT-29; 0.007 µM in the assay on LIM2405; 0.191 µM with RKO; 0.023 µM in the assay on LIM2551; over 1 µM in the assay with LS411N. Besides, the IC50 in the assay with OUMS-23 was over 1 µM.
